# System: 653999-131-R-J2-PDC complex spheroids, growth inhibition
# Experiment: Anticancer human tumor 653999-131-R-J2-PDC patient-derived lung adenocarcinoma cell line growth inhibition [RAS]
# Conditions: for viability, T/C: stronger effect = lower value
# How it was run: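 Agents were tested in combination matrices in half-log decrements from a top concentration at or near clinical Cmax (10 microM if undetermined). Targets were multi-cell spheroids of tumour lines plus HUVEC and MSC stromal cells.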
# 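Note: spheroids exposed to the agents for seven days before the readout.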
smiles,measurement,setting,value
CC1(O)CCCC1n1c(=O)c(C(F)F)cc2cnc(NC3CCN(S(C)(=O)=O)CC3)nc21 (stereo not drawn) + CCn1c(-c2cccnc2C(C)OC)c2c3cc(ccc31)N1CCOC(CC(NC(=O)C(C(C)C)N(C)C(=O)C3(F)CCN(C(=O)C#CC(C)(C)N(C)C)CC3)C(=O)N3CCCC(N3)C(=O)OCC(C)(C)C2)C1,IC50,"curve of first compound, second compound 0.000949 µM",> 10 µM
same,IC50,"curve of first compound, second compound 0.003 µM",6.61 µM
same,IC50,"curve of first compound, second compound 0.00949 µM",6.6 µM
same,IC50,"curve of first compound, second compound 0.03 µM",> 10 µM
same,IC50,"curve of first compound, second compound 0.0949 µM",6.91 µM
same,IC50,"curve of first compound, second compound 0.3 µM",6.62 µM
same,"viability, T/C","second compound 0.000949 µM, first compound 0.0316 µM",88.3%
same,"viability, T/C","second compound 0.000949 µM, first compound 0.1 µM",71.1%
same,"viability, T/C","second compound 0.000949 µM, first compound 0.316 µM",67.8%
same,"viability, T/C","second compound 0.000949 µM, first compound 1 µM",59.2%
same,"viability, T/C","second compound 0.000949 µM, first compound 3.16 µM",81.2%
same,"viability, T/C","second compound 0.000949 µM, first compound 10 µM",47.2%
same,"viability, T/C","second compound 0.003 µM, first compound 0.0316 µM",86.8%
same,"viability, T/C","second compound 0.003 µM, first compound 0.1 µM",71.4%
same,"viability, T/C","second compound 0.003 µM, first compound 0.316 µM",73.4%
same,"viability, T/C","second compound 0.003 µM, first compound 1 µM",62.5%
same,"viability, T/C","second compound 0.003 µM, first compound 3.16 µM",71.7%
same,"viability, T/C","second compound 0.003 µM, first compound 10 µM",39.6%
same,"viability, T/C","second compound 0.00949 µM, first compound 0.0316 µM",97.2%
same,"viability, T/C","second compound 0.00949 µM, first compound 0.1 µM",69.3%
same,"viability, T/C","second compound 0.00949 µM, first compound 0.316 µM",78.6%
same,"viability, T/C","second compound 0.00949 µM, first compound 1 µM",79.8%
same,"viability, T/C","second compound 0.00949 µM, first compound 3.16 µM",79.5%
same,"viability, T/C","second compound 0.00949 µM, first compound 10 µM",33.4%
same,"viability, T/C","second compound 0.03 µM, first compound 0.0316 µM",92.6%
same,"viability, T/C","second compound 0.03 µM, first compound 0.1 µM",62.1%
same,"viability, T/C","second compound 0.03 µM, first compound 0.316 µM",60.9%
same,"viability, T/C","second compound 0.03 µM, first compound 1 µM",63.8%
same,"viability, T/C","second compound 0.03 µM, first compound 3.16 µM",83.3%
same,"viability, T/C","second compound 0.03 µM, first compound 10 µM",42.5%
same,"viability, T/C","second compound 0.0949 µM, first compound 0.0316 µM",86.8%
same,"viability, T/C","second compound 0.0949 µM, first compound 0.1 µM",73.4%
same,"viability, T/C","second compound 0.0949 µM, first compound 0.316 µM",64.4%
same,"viability, T/C","second compound 0.0949 µM, first compound 1 µM",65.4%
same,"viability, T/C","second compound 0.0949 µM, first compound 3.16 µM",85.9%
same,"viability, T/C","second compound 0.0949 µM, first compound 10 µM",38.1%
same,"viability, T/C","second compound 0.3 µM, first compound 0.0316 µM",84.3%
same,"viability, T/C","second compound 0.3 µM, first compound 0.1 µM",62.3%
same,"viability, T/C","second compound 0.3 µM, first compound 0.316 µM",72%
same,"viability, T/C","second compound 0.3 µM, first compound 1 µM",68.9%
same,"viability, T/C","second compound 0.3 µM, first compound 3.16 µM",88.9%
same,"viability, T/C","second compound 0.3 µM, first compound 10 µM",36.1%
Cc1nc(N2CCC3(CC2)COC(C)C3N)c(CO)nc1Sc1ccnc(N)c1Cl (stereo not drawn),"viability, T/C",compound 0.0316 µM,91.2% [middle of 4 runs]
same,"viability, T/C",compound 0.1 µM,98.4% [middle of 4 runs]
same,"viability, T/C",compound 1 µM,87.6% [middle of 4 runs]
same,"viability, T/C",compound 3.16 µM,85.8% [middle of 4 runs]
same,IC50,curve of compound,> 10 µM
NC1c2ccccc2OC12CCN(c1cnc3c(N4CCCc5ncccc54)n[nH]c3n1)CC2 (stereo not drawn),"viability, T/C",compound 0.0316 µM,73.8% [middle of 4 runs]
same,"viability, T/C",compound 0.316 µM,75.5% [middle of 4 runs]
same,"viability, T/C",compound 1 µM,77.6% [middle of 4 runs]
same,"viability, T/C",compound 3.16 µM,83.9% [middle of 4 runs]
same,"viability, T/C",compound 10 µM,78.4% [middle of 4 runs]
same,IC50,curve of compound,> 10 µM

# Reference: PubChem BioAssay AID2060886 (Molecular Pharmacology Branch, DTP, NCI, 2025)
